According to ChEMBL document CHEMBL1649203, “Pharmacokinetics and safety of famciclovir in children with herpes simplex or varicella-zoster virus infection” (Antimicrob Agents Chemother, 2009):

Columns and labels:
Homo sapiens [1] = assay: Toxicity in HSV-infected 1 to <2 years aged pediatric patient assessed as incidence of cough at 30.9 mg/kg, po bid; assay type: organism-based; design: dose 30.9 mg/kg, route oral; settings: in vivo
Homo sapiens [2] = assay: Toxicity in orally dosed HSV-infected patient assessed as at least one adverse event administered as bid; assay type: organism-based; settings: in vivo, po
Homo sapiens [3] = assay: Toxicity in HSV-infected 1 to <2 years aged pediatric patient assessed as at least one adverse event at 30.9 mg/kg, po bid; assay type: organism-based; design: dose 30.9 mg/kg, route oral; settings: in vivo
[4] = Apparent oral clearance in 6 to <=12 years aged pediatric patient administered as single dose; assay type: ADME, organism-based; settings: human, in vivo
Homo sapiens [5] = assay: Toxicity in VZV-infected 1 to <2 years aged pediatric patient assessed as incidence of cellulitis at 40.8 mg/kg, po tid; assay type: organism-based; design: dose 40.8 mg/kg, route oral; settings: in vivo
Homo sapiens [6] = assay: Toxicity in VZV-infected 2 to <6 years aged pediatric patient assessed as pyrexia at 40.6 mg/kg, po tid; assay type: organism-based; design: dose 40.6 mg/kg, route oral; settings: in vivo
Homo sapiens [7] = assay: Toxicity in orally dosed HSV-infected patient assessed as incidence of headache administered as bid; assay type: organism-based; settings: in vivo, po
Homo sapiens [8] = assay: Toxicity in VZV-infected 6 to <=12 years aged pediatric patient assessed as pyrexia at 35.5 mg/kg, po tid; assay type: organism-based; design: dose 35.5 mg/kg, route oral; settings: in vivo
Homo sapiens [9] = assay: Toxicity in VZV-infected 1 to <2 years aged pediatric patient assessed as incidence of pruritus at 40.8 mg/kg, po tid; assay type: organism-based; design: dose 40.8 mg/kg, route oral; settings: in vivo
Homo sapiens [10] = assay: Toxicity in HSV-infected 2 to <6 years aged pediatric patient assessed as incidence of abdominal pain at 27.6 mg/kg, po bid; assay type: organism-based, Abdomen; design: dose 27.6 mg/kg, route oral; settings: in vivo
Homo sapiens [11] = assay: Toxicity in orally dosed VZV-infected patient assessed as incidence of abdominal pain administered as tid; assay type: organism-based, Abdomen; settings: in vivo, po
Homo sapiens [12] = assay: Toxicity in orally dosed VZV-infected patient assessed as incidence of pruritus administered as tid; assay type: organism-based; settings: in vivo, po
Homo sapiens [13] = assay: Toxicity in HSV-infected 2 to <6 years aged pediatric patient assessed as incidence of nausea at 27.6 mg/kg, po bid; assay type: organism-based; design: dose 27.6 mg/kg, route oral; settings: in vivo
Homo sapiens [14] = assay: Toxicity in HSV-infected 6 to <=12 years aged pediatric patient assessed as at least one adverse event at 23.5 mg/kg, po bid; assay type: organism-based; design: dose 23.5 mg/kg, route oral; settings: in vivo
Homo sapiens [15] = assay: Toxicity in orally dosed HSV-infected patient assessed as incidence of diarrhea administered as bid; assay type: organism-based; settings: in vivo, po
Homo sapiens [16] = assay: Toxicity in VZV-infected 2 to <6 years aged pediatric patient assessed as incidence of headache at 40.6 mg/kg, po tid; assay type: organism-based; design: dose 40.6 mg/kg, route oral; settings: in vivo
Homo sapiens [17] = assay: Toxicity in orally dosed VZV-infected patient assessed as incidence of vomiting administered as tid; assay type: organism-based; settings: in vivo, po
Homo sapiens [18] = assay: Toxicity in VZV-infected 1 to <2 years aged pediatric patient assessed as incidence of headache at 40.8 mg/kg, po tid; assay type: organism-based; design: dose 40.8 mg/kg, route oral; settings: in vivo
Homo sapiens [19] = assay: Toxicity in orally dosed HSV-infected patient assessed as incidence of abdominal pain administered as bid; assay type: organism-based, Abdomen; settings: in vivo, po
[20] = Half life in 1 to <2 years aged pediatric patient administered as single dose; assay type: ADME, organism-based; settings: human, in vivo
Homo sapiens [21] = assay: Toxicity in orally dosed HSV-infected patient assessed as incidence of cough administered as bid; assay type: organism-based; settings: in vivo, po
Homo sapiens [22] = assay: Toxicity in orally dosed VZV-infected patient assessed as incidence of nausea administered as tid; assay type: organism-based; settings: in vivo, po
Homo sapiens [23] = assay: AUC (0 to last) in 1 to <2 years aged pediatric patient administered as single dose; assay type: ADME, organism-based, Plasma; design: time 0 - last; settings: in vivo
Homo sapiens [24] = assay: Toxicity in VZV-infected 6 to <=12 years aged pediatric patient assessed as incidence of pruritus at 35.5 mg/kg, po tid; assay type: organism-based; design: dose 35.5 mg/kg, route oral; settings: in vivo
Homo sapiens [25] = assay: Toxicity in VZV-infected 6 to <=12 years aged pediatric patient assessed as incidence of abdominal pain at 35.5 mg/kg, po tid; assay type: organism-based, Abdomen; design: dose 35.5 mg/kg, route oral; settings: in vivo
Homo sapiens [26] = assay: Toxicity in HSV-infected 2 to <6 years aged pediatric patient assessed as incidence of cough at 27.6 mg/kg, po bid; assay type: organism-based; design: dose 27.6 mg/kg, route oral; settings: in vivo
Homo sapiens [27] = assay: Toxicity in VZV-infected 2 to <6 years aged pediatric patient assessed as incidence of vomiting at 40.6 mg/kg, po tid; assay type: organism-based; design: dose 40.6 mg/kg, route oral; settings: in vivo
Homo sapiens [28] = assay: Toxicity in HSV-infected 6 to <=12 years aged pediatric patient assessed as incidence of cough at 23.5 mg/kg, po bid; assay type: organism-based; design: dose 23.5 mg/kg, route oral; settings: in vivo
Homo sapiens [29] = assay: Toxicity in VZV-infected 1 to <2 years aged pediatric patient assessed as pyrexia at 40.8 mg/kg, po tid; assay type: organism-based; design: dose 40.8 mg/kg, route oral; settings: in vivo
Homo sapiens [30] = assay: Toxicity in orally dosed VZV-infected patient assessed as incidence of headache administered as tid; assay type: organism-based; settings: in vivo, po
Homo sapiens [31] = assay: Toxicity in HSV-infected 1 to <2 years aged pediatric patient assessed as incidence of diarrhea at 30.9 mg/kg, po bid; assay type: organism-based; design: dose 30.9 mg/kg, route oral; settings: in vivo
[32] = Half life in 6 to <=12 years aged pediatric patient administered as single dose; assay type: ADME, organism-based; settings: human, in vivo
Homo sapiens [33] = assay: AUC (0 to last) in 6 to <=12 years aged pediatric patient administered as single dose; assay type: ADME, organism-based, Plasma; design: time 0 - last; settings: in vivo
Homo sapiens [34] = assay: Toxicity in orally dosed HSV-infected patient assessed as incidence of nausea administered as bid; assay type: organism-based; settings: in vivo, po
[35] = Cmax in 6 to <=12 years aged pediatric patient administered as single dose; assay type: ADME, organism-based; settings: human, in vivo
Homo sapiens [36] = assay: Toxicity in VZV-infected 2 to <6 years aged pediatric patient assessed as incidence of pruritus at 40.6 mg/kg, po tid; assay type: organism-based; design: dose 40.6 mg/kg, route oral; settings: in vivo
Homo sapiens [37] = assay: Toxicity in orally dosed VZV-infected patient assessed as at least one adverse event administered as tid; assay type: organism-based; settings: in vivo, po
Homo sapiens [38] = assay: Toxicity in HSV-infected 6 to <=12 years aged pediatric patient assessed as incidence of diarrhea at 23.5 mg/kg, po bid; assay type: organism-based; design: dose 23.5 mg/kg, route oral; settings: in vivo
Homo sapiens [39] = assay: Toxicity in VZV-infected 6 to <=12 years aged pediatric patient assessed as incidence of headache at 35.5 mg/kg, po tid; assay type: organism-based; design: dose 35.5 mg/kg, route oral; settings: in vivo
Homo sapiens [40] = assay: Toxicity in orally dosed VZV-infected patient assessed as incidence of cellulitis administered as tid; assay type: organism-based; settings: in vivo, po
Homo sapiens [41] = assay: Toxicity in VZV-infected 6 to <=12 years aged pediatric patient assessed as incidence of cellulitis at 35.5 mg/kg, po tid; assay type: organism-based; design: dose 35.5 mg/kg, route oral; settings: in vivo
[42] = Apparent oral clearance in 2 to <6 years aged pediatric patient administered as single dose; assay type: ADME, organism-based; settings: human, in vivo
Homo sapiens [43] = assay: Toxicity in VZV-infected 6 to <=12 years aged pediatric patient assessed as incidence of vomiting at 35.5 mg/kg, po tid; assay type: organism-based; design: dose 35.5 mg/kg, route oral; settings: in vivo
Homo sapiens [44] = assay: AUC (0 to infinity) in 6 to <=12 years aged pediatric patient administered as single dose; assay type: ADME, organism-based, Plasma; design: time infinity; settings: in vivo
Homo sapiens [45] = assay: Toxicity in HSV-infected 6 to <=12 years aged pediatric patient assessed as incidence of headache at 23.5 mg/kg, po bid; assay type: organism-based; design: dose 23.5 mg/kg, route oral; settings: in vivo
Homo sapiens [46] = assay: Toxicity in HSV-infected 2 to <6 years aged pediatric patient assessed as at least one adverse event at 27.6 mg/kg, po bid; assay type: organism-based; design: dose 27.6 mg/kg, route oral; settings: in vivo
Homo sapiens [47] = assay: Toxicity in VZV-infected 6 to <=12 years aged pediatric patient assessed as incidence of nausea at 35.5 mg/kg, po tid; assay type: organism-based; design: dose 35.5 mg/kg, route oral; settings: in vivo
Homo sapiens [48] = assay: Toxicity in orally dosed HSV-infected patient assessed as incidence of vomiting administered as bid; assay type: organism-based; settings: in vivo, po
[49] = Apparent oral clearance in 1 to <2 years aged pediatric patient administered as single dose; assay type: ADME, organism-based; settings: human, in vivo
Homo sapiens [50] = assay: Toxicity in VZV-infected 1 to <2 years aged pediatric patient assessed as incidence of vomiting at 40.8 mg/kg, po tid; assay type: organism-based; design: dose 40.8 mg/kg, route oral; settings: in vivo

Nc1nc2c(ncn2CCC(CO)CO)c(=O)[nH]1 [PENCICLOVIR]
Activity (Homo sapiens [1]): 7.7% | Activity (Homo sapiens [2]): 55.3% | Activity (Homo sapiens [3]): 42.2% | CL/F [4]: 578 mL/min | Activity (Homo sapiens [5]): 0% | Activity (Homo sapiens [6]): 5.3% | Activity (Homo sapiens [7]): 8.5% | Activity (Homo sapiens [8]): 6.3% | Activity (Homo sapiens [9]): 5.6% | Activity (Homo sapiens [10]): 6.3% | Activity (Homo sapiens [11]): 3.8% | Activity (Homo sapiens [12]): 3.8% | Activity (Homo sapiens [13]): 0% | Activity (Homo sapiens [14]): 66.7% | Activity (Homo sapiens [15]): 8.5% | Activity (Homo sapiens [16]): 0% | Activity (Homo sapiens [17]): 9.4% | Activity (Homo sapiens [18]): 0% | Activity (Homo sapiens [19]): 4.3% | half-life [20]: 1.2 h | Activity (Homo sapiens [21]): 6.4% | Activity (Homo sapiens [22]): 3.8% | AUC (Homo sapiens [23]): 6.52 ug/hr.ml | Activity (Homo sapiens [24]): 6.3% | Activity (Homo sapiens [25]): 12.5% | Activity (Homo sapiens [26]): 6.3% | Activity (Homo sapiens [27]): 0% | Activity (Homo sapiens [28]): 5.6% | Activity (Homo sapiens [29]): 11.1% | Activity (Homo sapiens [30]): 3.8% | Activity (Homo sapiens [31]): 7.7% | half-life [32]: 1.62 h | AUC (Homo sapiens [33]): 7.98 ug/hr.ml | Activity (Homo sapiens [34]): 6.4% | Cmax [35]: 3410 ng/mL | Activity (Homo sapiens [36]): 0% | Activity (Homo sapiens [37]): 45.3% | Activity (Homo sapiens [38]): 11.1% | Activity (Homo sapiens [39]): 12.5% | Activity (Homo sapiens [40]): 3.8% | Activity (Homo sapiens [41]): 6.3% | CL/F [42]: 410 mL/min | Activity (Homo sapiens [43]): 0% | AUC (Homo sapiens [44]): 9.33 ug/hr.ml | Activity (Homo sapiens [45]): 22.2% | Activity (Homo sapiens [46]): 50% | Activity (Homo sapiens [47]): 6.3% | Activity (Homo sapiens [48]): 10.6% | CL/F [49]: 278 mL/min | Activity (Homo sapiens [50]): 27.8%
